Consider three compounds from ChEMBL document CHEMBL5365540, “Structure-activity relationship studies and biological properties evaluation of peptidic NRP-1 ligands: Investigation of N-terminal cysteine importance” (Bioorg Med Chem, 2023).

A short description of data set [1]: Stability in human serum assessed as parent compound remaining measured after 24 hrs by LC-SWATH-MS analysis. Type of data set: ADME, cell-free. Conditions: read-out: Stability.
The target in a further data set is VEGA-NRP1 (Homo sapiens, UniProt O14786). The data set can be described thus: Inhibition of human biotinylated-VEGFA165 binding to recombinant human NRP-1 measured after 2 hrs by chemiluminescent based ELISA. Type of data set: protein assay.
Sequence of VEGA-NRP1 (O14786 whole entry, one chain of several): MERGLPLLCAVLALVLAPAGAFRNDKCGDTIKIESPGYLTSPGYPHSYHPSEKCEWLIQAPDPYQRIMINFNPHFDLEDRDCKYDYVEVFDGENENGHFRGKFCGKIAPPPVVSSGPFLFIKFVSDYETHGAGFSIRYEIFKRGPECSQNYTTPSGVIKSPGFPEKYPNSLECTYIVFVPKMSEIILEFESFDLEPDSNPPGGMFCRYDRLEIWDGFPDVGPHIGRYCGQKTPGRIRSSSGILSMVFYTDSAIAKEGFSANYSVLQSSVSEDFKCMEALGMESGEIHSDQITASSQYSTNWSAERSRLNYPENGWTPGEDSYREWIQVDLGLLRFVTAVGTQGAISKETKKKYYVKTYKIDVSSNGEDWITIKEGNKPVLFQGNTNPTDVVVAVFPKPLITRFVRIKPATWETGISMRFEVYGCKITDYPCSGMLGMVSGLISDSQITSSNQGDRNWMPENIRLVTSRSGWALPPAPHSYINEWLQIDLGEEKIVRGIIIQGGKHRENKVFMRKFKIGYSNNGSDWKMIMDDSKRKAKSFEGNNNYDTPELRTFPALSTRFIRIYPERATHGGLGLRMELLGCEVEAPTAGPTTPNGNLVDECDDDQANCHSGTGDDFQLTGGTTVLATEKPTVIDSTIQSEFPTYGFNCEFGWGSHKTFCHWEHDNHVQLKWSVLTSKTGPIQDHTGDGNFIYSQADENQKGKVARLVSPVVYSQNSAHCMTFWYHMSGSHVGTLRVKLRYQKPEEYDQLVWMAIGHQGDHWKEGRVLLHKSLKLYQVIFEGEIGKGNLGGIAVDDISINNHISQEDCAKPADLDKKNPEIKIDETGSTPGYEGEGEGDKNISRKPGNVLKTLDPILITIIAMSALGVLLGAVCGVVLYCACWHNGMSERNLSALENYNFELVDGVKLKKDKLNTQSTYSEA
Data set [2] can be described thus: Stability in human serum assessed as parent compound remaining measured after 8 hrs by LC-SWATH-MS analysis. Type of data set: ADME, cell-free. Conditions: read-out: Stability.
The test system of data set [3] is MDA-MB-231. The data set can be described thus: Increase in NRP-1 expression in human MDA-MB-231 cell membrane at 72 uM preincubated for 15 mins at 4 degC followed by compound washout and further incubated for 5 mins with subsequent addition of compound at 37 degC by FITC-streptavidin staining based flow cytometry analysis. Format: functional. The conditions noted are these: time 20.0 min. For orientation: A flow cytometer gives signals particle by particle.

The nature of data set [4]: Stability in human serum assessed as compound degradation measured upto 96 hrs by LC-SWATH-MS analysis. Type of data set: ADME, cell-free.
Data set [5] has as its target VEGFR2-VEGA (Homo sapiens) (UniProt P15692+P35968). Kind of data set: Inhibition of human biotinylated-VEGFA165 binding to recombinant human VEGFR2 measured after 2 hrs by chemiluminescent based ELISA. Type of data set: protein-complex assay. (ELISA stands for enzyme-linked immunosorbent assay.)
Data set [6] can be described thus: Half-life in human serum by LC-SWATH-MS analysis. Type of data set: ADME, cell-free.
Data set [7] concerns MDA-MB-231. The data set can be described thus: Increase in NRP-1 expression in human MDA-MB-231 cell membrane at 7.2 uM preincubated for 15 mins at 4 degC followed by compound washout and further incubated for 60 mins with subsequent addition of compound at 37 degC by FITC-streptavidin staining based flow cytometry analysis. Type of data set: functional. The conditions noted are these: time 75.0 min.

Data set [8] concerns the target VEGFR1-VEGA (Homo sapiens) (UniProt P15692+P17948). Kind of data set: Inhibition of human biotinylated-VEGFA165 binding to recombinant human VEGFR1 measured after 2 hrs by chemiluminescent based ELISA. Format: protein-complex assay.
The target in another data set is T1, NRP2-VEGA (Homo sapiens, UniProt O60462+P15692).
T1 sequence (P15692 whole entry): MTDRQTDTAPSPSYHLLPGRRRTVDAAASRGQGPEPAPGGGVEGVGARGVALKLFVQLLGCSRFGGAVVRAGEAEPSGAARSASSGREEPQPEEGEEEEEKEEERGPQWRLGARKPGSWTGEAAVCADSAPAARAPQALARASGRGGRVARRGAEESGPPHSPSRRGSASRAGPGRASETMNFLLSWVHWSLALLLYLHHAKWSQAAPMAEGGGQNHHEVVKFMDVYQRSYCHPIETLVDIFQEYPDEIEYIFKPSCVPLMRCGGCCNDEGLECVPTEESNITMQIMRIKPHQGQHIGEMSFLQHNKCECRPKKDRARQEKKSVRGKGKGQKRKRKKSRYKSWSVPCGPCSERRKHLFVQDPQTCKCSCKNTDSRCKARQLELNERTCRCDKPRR
T1 sequence (O60462 whole entry): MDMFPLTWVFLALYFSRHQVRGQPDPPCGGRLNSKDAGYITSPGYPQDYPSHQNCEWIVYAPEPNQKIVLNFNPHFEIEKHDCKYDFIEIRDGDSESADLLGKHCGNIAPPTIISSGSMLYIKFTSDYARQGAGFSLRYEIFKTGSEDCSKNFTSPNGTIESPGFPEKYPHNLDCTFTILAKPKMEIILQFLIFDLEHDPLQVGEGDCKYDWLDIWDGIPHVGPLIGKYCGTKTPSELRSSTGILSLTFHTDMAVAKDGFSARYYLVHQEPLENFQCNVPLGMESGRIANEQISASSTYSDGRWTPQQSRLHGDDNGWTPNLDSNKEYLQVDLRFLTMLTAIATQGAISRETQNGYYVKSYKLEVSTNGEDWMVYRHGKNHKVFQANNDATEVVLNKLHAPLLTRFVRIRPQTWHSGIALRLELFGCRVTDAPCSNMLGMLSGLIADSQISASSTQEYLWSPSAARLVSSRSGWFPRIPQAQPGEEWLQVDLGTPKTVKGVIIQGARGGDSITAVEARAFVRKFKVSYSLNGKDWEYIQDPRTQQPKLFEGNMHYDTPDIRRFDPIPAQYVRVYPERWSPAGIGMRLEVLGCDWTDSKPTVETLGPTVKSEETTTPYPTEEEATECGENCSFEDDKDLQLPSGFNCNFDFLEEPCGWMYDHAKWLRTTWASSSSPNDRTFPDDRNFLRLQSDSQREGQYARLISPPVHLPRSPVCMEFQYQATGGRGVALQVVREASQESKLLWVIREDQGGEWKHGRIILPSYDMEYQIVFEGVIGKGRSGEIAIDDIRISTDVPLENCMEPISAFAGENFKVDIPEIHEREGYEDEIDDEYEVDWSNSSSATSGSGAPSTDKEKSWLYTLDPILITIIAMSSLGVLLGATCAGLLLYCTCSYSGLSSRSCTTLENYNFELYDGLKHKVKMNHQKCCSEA
Kind of data set: Inhibition of human biotinylated-VEGFA165 binding to recombinant human NRP-2 measured after 2 hrs by chemiluminescent based ELISA. Type of data set: protein-complex assay.

The species entered for a further data set is Homo sapiens. The data set can be described thus: Selectivity ratio of IC50 for inhibition of human biotinylated-VEGFA165 binding to recombinant human NRP-1 to IC50 for inhibition of human biotinylated-VEGFA165 binding to recombinant human NRP-2.
Data set [9] has as its system MDA-MB-231. Kind of data set: Increase in NRP-1 expression in human MDA-MB-231 cell membrane at 72 uM preincubated for 15 mins at 4 degC followed by compound washout and further incubated for 60 mins with subsequent addition of compound at 37 degC by FITC-streptavidin staining based flow cytometry analysis. The conditions noted are these: time 75.0 min. Format: functional.

Data set [10] can be described thus: Stability in human serum assessed as parent compound remaining measured after 12 hrs by LC-SWATH-MS analysis. Type of data set: ADME, cell-free. Conditions: read-out: Stability.

The source made the active and inactive calls. No cut-off for these calls is given here. Where a SMILES comes first, the peptide text is derived from it.

On to `N=C(N)NCCCC[C@H](N)C(=O)NCC[C@H](N)C(=O)N[C@@H](CCN)C(=O)N1C2CCCCC2C[C@H]1C(=O)N[C@@H](CCCNC(=N)N)C(=O)O` (some centres not stated) (HELM PEPTIDE1{[Dab].[Dab].[O=C([C@@H]1CC2CCCCC2N1[*:1])[*:2]].R}|PEPTIDE2{[N=C(N)NCCCC[C@H](N)C(=O)[*:2]]}$PEPTIDE1,PEPTIDE2,1:R3-1:R2$$$V2.0), for which, in [1], the remaining at 24 h is 0%. Also, the IC50 on VEGA-NRP1 (read-out: pIC50 (converted)) is 2240 nM. Besides, in data set [2], the remaining at 8 h amounted to 56%.

Consider `N=C(N)NCCCC[C@H](NC(=O)[C@@H](N)CS)C(=O)NCCCC[C@H](N)C(=O)N[C@@H](CCN)C(=O)N1C2CCCCC2C[C@H]1C(=O)N[C@@H](CCCNC(=N)N)C(=O)O` (some centres not stated) (HELM PEPTIDE1{K.[Dab].[O=C([C@@H]1CC2CCCCC2N1[*:1])[*:2]].R}|PEPTIDE2{C.[N=C(N)NCCCC[C@H](N[*:1])C(=O)[*:2]]}$PEPTIDE1,PEPTIDE2,1:R3-2:R2$$$V2.0), for which the outcome with MDA-MB-231 [3], in the data set on MDA-MB-231 [7] and in the data set on MDA-MB-231 [9] was Active. Moreover, the Stability entry in data set [4] is recorded as “Unstable”. The inhibition entry in data set [5] and in data set [8] was “inactive” each time. Besides, the half-life in [6] was less than 8 h. For the same compound, the IC50 at NRP2-VEGA (read-out: IC50) stood at 9 nM; at VEGA-NRP1 (read-out: IC50) it was 46 nM. Further, in the data set listed under Homo sapiens, the Ratio IC50 came to 5. For the same compound, the remaining at 8 h in data set [2] turned out to be 47%.

Regarding `N=C(N)NCCCC[C@H](N)C(=O)NCCCC[C@H](NC(=O)[C@@H](N)CS)C(=O)N[C@@H](CCN)C(=O)N1C2CCCCC2C[C@H]1C(=O)N[C@@H](CCCNC(=N)N)C(=O)O` (some centres not stated) (HELM PEPTIDE1{C.K.[Dab].[O=C([C@@H]1CC2CCCCC2N1[*:1])[*:2]].R}|PEPTIDE2{[N=C(N)NCCCC[C@H](N)C(=O)[*:2]]}$PEPTIDE1,PEPTIDE2,2:R3-1:R2$$$V2.0), the outcome in the data set on MDA-MB-231 [3], in the data set on MDA-MB-231 [7] and with MDA-MB-231 [9] was Active. The Stability entry in [4] was “Unstable”. Also, the inhibition result in [5] and in data set [8] was “inactive” in each case. This compound showed a half-life in data set [6] of approximately 8 h. Further, the IC50 was 43 nM at NRP2-VEGA (read-out: IC50), 475 nM at NRP2-VEGA (read-out: pIC50 (converted)), 39 nM on VEGA-NRP1 (read-out: IC50) and 43.1 nM on VEGA-NRP1 (read-out: pIC50 (converted)). Further, the remaining at 12 h in data set [10] is 61%. Besides, the Ratio IC50 in the data set filed under Homo sapiens was 5.

Usually half-life stands for the time in which the quantity being followed falls by half. A higher half-life goes with slow decline.
